Results published in ChEMBL document CHEMBL3044818, “Fungicide resistance status in French populations of the wheat eyespot fungi Oculimacula acuformis and Oculimacula yallundae” (Pest Manag Sci, 2013).
Converted amounts (≈) assume the structure as drawn.

Tests used:
Oculimacula yallundae [1] = test: Resistance index, ratio of EC50 for sterol 14alpha-demethylation inhibitor-resistant Oculimacula yallundae TriR2 to EC50 for wild type Oculimacula yallundae TriS by germ tube elongation assay; format: functional
Oculimacula yallundae [2] = test: Resistance index, ratio of EC50 for sterol 14alpha-demethylation inhibitor-resistant Oculimacula yallundae MDR to EC50 for sterol 14alpha-demethylation inhibitor-resistant Oculimacula yallundae TriR1 by germ tube elongation assay; format: functional
Oculimacula yallundae [3] = test: Resistance index, ratio of EC50 for prochloraz-resistant Oculimacula yallundae isolate ProR2 to EC50 for prochloraz-susceptible Oculimacula yallundae isolate ProS by mycelial growth inhibition assay; format: functional
Oculimacula yallundae [4] = test: Resistance index, ratio of EC50 for prochloraz-resistant Oculimacula yallundae isolate ProR1 to EC50 for prochloraz-susceptible Oculimacula yallundae isolate ProS by germ tube elongation inhibition assay; format: functional
Oculimacula yallundae [5] = test: Resistance index, ratio of EC50 for sterol 14alpha-demethylation inhibitor-resistant Oculimacula yallundae MDR to EC50 for sterol 14alpha-demethylation inhibitor-resistant Oculimacula yallundae TriR1 by mycelial growth inhibition assay; format: functional
Oculimacula yallundae [6] = test: Fungicidal activity against Oculimacula yallundae assessed as inhibition of mycelial growth in presence of 10 g glucose incubated at 19 degC in dark for 4 weeks; format: functional, organism-based; details: 672 h
[7] = Selectivity index, ratio of EC50 for Oculimacula acuformis to EC50 for Oculimacula yallundae by germ tube elongation inhibition assay; format: functional
Oculimacula yallundae [8] = test: Resistance index, ratio of EC50 for sterol 14alpha-demethylation inhibitor-resistant Oculimacula yallundae TriR2 to EC50 for sterol 14alpha-demethylation inhibitor-resistant Oculimacula yallundae TriR1 by mycelial growth inhibition assay; format: functional
Oculimacula yallundae [9] = test: Resistance index, ratio of EC50 for sterol 14alpha-demethylation inhibitor-resistant Oculimacula yallundae MDR to EC50 for wild type Oculimacula yallundae TriS by germ tube elongation assay; format: functional
Oculimacula yallundae [10] = test: Fungicidal activity against prochloraz-susceptible Oculimacula yallundae isolate ProS assessed as inhibition of germ tube elongation incubated at 19 degC in dark for 48 hr; format: functional, organism-based
Oculimacula yallundae [11] = test: Resistance index, ratio of EC50 for prochloraz-resistant Oculimacula yallundae isolate ProR1 to EC50 for prochloraz-susceptible Oculimacula yallundae isolate ProS by mycelial growth inhibition assay; format: functional
Oculimacula yallundae [12] = test: Resistance index, ratio of EC50 for sterol 14alpha-demethylation inhibitor-resistant Oculimacula yallundae TriR1 to EC50 for wild type Oculimacula yallundae TriS by mycelial growth inhibition assay; format: functional
Oculimacula yallundae [13] = test: Resistance index, ratio of EC50 for sterol 14alpha-demethylation inhibitor-resistant Oculimacula yallundae TriR2 to EC50 for wild type Oculimacula yallundae TriS by mycelial growth inhibition assay; format: functional
Oculimacula yallundae [14] = test: Resistance index, ratio of EC50 for sterol 14alpha-demethylation inhibitor-resistant Oculimacula yallundae TriR1 to EC50 for wild type Oculimacula yallundae TriS by germ tube elongation assay; format: functional
Oculimacula yallundae [15] = test: Fungicidal activity against prochloraz-susceptible Oculimacula yallundae isolate ProS assessed as inhibition of mycelial growth in presence of 10 g glucose incubated at 19 degC in dark for 4 weeks; format: functional, organism-based; details: 672 h
Oculimacula yallundae [16] = test: Fungicidal activity against Oculimacula yallundae assessed as inhibition of germ tube elongation incubated at 19 degC in dark for 48 hr; format: functional, organism-based
Oculimacula yallundae [17] = test: Resistance index, ratio of EC50 for prochloraz-resistant Oculimacula yallundae isolate ProR2 to EC50 for prochloraz-susceptible Oculimacula yallundae isolate ProS by germ tube elongation inhibition assay; format: functional
Oculimacula yallundae [18] = test: Resistance index, ratio of EC50 for sterol 14alpha-demethylation inhibitor-resistant Oculimacula yallundae TriR2 to EC50 for sterol 14alpha-demethylation inhibitor-resistant Oculimacula yallundae TriR1 by germ tube elongation assay; format: functional
[19] = Selectivity index, ratio of EC50 for Oculimacula acuformis to EC50 for Oculimacula yallundae in presence of 10 g glucose by mycelial growth inhibition assay; format: functional
Oculimacula acuformis [20] = test: Fungicidal activity against Oculimacula acuformis assessed as inhibition of germ tube elongation incubated at 19 degC in dark for 48 hr; format: functional, organism-based
Oculimacula acuformis [21] = test: Fungicidal activity against Oculimacula acuformis assessed as inhibition of mycelial growth in presence of 10 g glucose incubated at 19 degC in dark for 4 weeks; format: functional, organism-based; details: 672 h
Oculimacula yallundae [22] = test: Resistance index, ratio of EC50 for sterol 14alpha-demethylation inhibitor-resistant Oculimacula yallundae MDR to EC50 for wild type Oculimacula yallundae TriS by mycelial growth inhibition assay; format: functional

| SMILES | Ratio EC50 (Oculimacula yallundae [1]) | Ratio EC50 (Oculimacula yallundae [2]) | Ratio EC50 (Oculimacula yallundae [4]) | Ratio EC50 (Oculimacula yallundae [5]) | EC50 (Oculimacula yallundae [6]) [µg/mL] | Ratio EC50 [7] | Ratio EC50 (Oculimacula yallundae [8]) | Ratio EC50 (Oculimacula yallundae [9]) | EC50 (Oculimacula yallundae [10]) [µg/mL] | Ratio EC50 (Oculimacula yallundae [12]) | Ratio EC50 (Oculimacula yallundae [13]) | Ratio EC50 (Oculimacula yallundae [14]) | EC50 (Oculimacula yallundae [16]) [µg/mL] | Ratio EC50 (Oculimacula yallundae [17]) | Ratio EC50 (Oculimacula yallundae [18]) | Ratio EC50 [19] | EC50 (Oculimacula acuformis [20]) [µg/mL] | EC50 (Oculimacula acuformis [21]) [µg/mL] | Ratio EC50 (Oculimacula yallundae [22]) | other results |
| --- | --- | --- | --- | --- | --- | --- | --- | --- | --- | --- | --- | --- | --- | --- | --- | --- | --- | --- | --- | --- |
| Fc1ccc([C@]2(Cn3cncn3)O[C@H]2c2ccccc2Cl)cc1 (relative stereo) [EPOXICONAZOLE] | 60 | 5 | 2 | 2 | 0.15 | 15 | 1 | 150 | 0.3 (≈ 0.91 µM) | 3.3 | 3.3 | 30 | 0.02 (≈ 0.0606 µM) | 3 | 2 | 2 | 0.3 (≈ 0.91 µM) | 0.3 | 6.7 | Ratio EC50 (Oculimacula yallundae [3]): 5; Ratio EC50 (Oculimacula yallundae [11]): 3.3; EC50 (Oculimacula yallundae [15]): 0.3 µg/mL |
| COC(=O)Nc1nc2ccccc2[nH]1 [CARBENDAZIM] |  |  |  |  | 0.03 | 1 |  |  |  |  |  |  | 0.04 (≈ 0.209 µM) |  |  | 1.3 | 0.04 (≈ 0.209 µM) | 0.04 |  |  |
| CC1=C(C(=O)Nc2ccccc2)SCCO1 [CARBOXIN] | 1.2 | 1.4 |  |  |  |  |  | 1.4 |  |  |  | 1 | 2.5 (≈ 10.6 µM) |  | 1.2 |  |  |  |  |  |
| CC(C1CC1)C(O)(Cn1cncn1)c1ccc(Cl)cc1 (stereo not given) [CYPROCONAZOLE] | 100 | 1 | 0.5 | 0.9 | 0.3 | 60 | 0.7 | 160 | 3 (≈ 10.3 µM) | 23 | 17 | 160 | 0.05 (≈ 0.171 µM) | 0.8 | 0.6 | 40 | 3 (≈ 10.3 µM) | 12 | 20 |  |
| Cc1cc(C2CC2)nc(Nc2ccccc2)n1 [CYPRODINIL] | 1 | 13 |  |  | 0.5 | 1 |  | 13 |  |  |  | 1 | 0.004 (≈ 0.0178 µM) |  | 1 | 0.12 | 0.004 (≈ 0.0178 µM) | 0.06 |  |  |
| CC1(C(=O)Nc2ccc(O)c(Cl)c2Cl)CCCCC1 [FENHEXAMID] | 1.2 | 28 |  | 1.7 | 0.4 | 0.8 | 0.8 | 33 |  | 1.5 | 1.2 | 1.2 | 0.06 (≈ 0.199 µM) |  | 1 | 0.8 | 0.05 (≈ 0.165 µM) | 0.32 | 2.5 |  |
| CC(Cc1ccc(C(C)(C)C)cc1)CN1C[C@@H](C)O[C@@H](C)C1 (stereo not given in full) [FENPROPIMORPH] |  |  |  |  | 15 | 0.15 |  |  |  |  |  |  | 0.4 (≈ 1.32 µM) |  |  | 0.12 | 0.06 (≈ 0.198 µM) | 1.8 |  |  |
| C[Si](Cn1cncn1)(c1ccc(F)cc1)c1ccc(F)cc1 [FLUSILAZOLE] |  |  | 2.5 |  | 0.06 | 25 |  |  | 0.2 (≈ 0.634 µM) |  |  |  | 0.008 (≈ 0.0254 µM) | 5 |  | 6.7 | 0.2 (≈ 0.634 µM) | 0.4 |  | Ratio EC50 (Oculimacula yallundae [3]): 6.2; Ratio EC50 (Oculimacula yallundae [11]): 5; EC50 (Oculimacula yallundae [15]): 0.4 µg/mL |
| COc1cc(C)c(C(=O)c2c(OC)ccc(Br)c2C)c(OC)c1OC [METRAFENONE] |  |  |  | 1.1 | 0.8 |  | 1.3 |  |  | 1 | 1.3 |  | > 25 |  |  | 0.1 | > 25 | 0.08 | 1.1 |  |
| CC(C)CC(C)c1sccc1NC(=O)c1cn(C)nc1C(F)(F)F (stereo not given) [PENTHIOPYRAD] | 1 | 12 |  |  |  |  |  | 12 |  |  |  | 1 | 0.02 (≈ 0.0556 µM) |  | 1 |  |  |  |  |  |
| Cc1cc(C)nc(Nc2ccccc2)n1 [PYRIMETHANIL] | 1.2 | 12 |  |  |  |  |  | 12 |  |  |  | 1 | 0.1 (≈ 0.502 µM) |  | 1.2 |  |  |  |  |  |
| CC(C)(C)C(O)(CCc1ccc(Cl)cc1)Cn1cncn1 (stereo not given) [TEBUCONAZOLE] | 100 | 4 | 3 | 1.3 | 0.2 | 17 | 1.5 | 267 | 0.5 (≈ 1.62 µM) | 20 | 30 | 67 | 0.03 (≈ 0.0975 µM) | 5 | 1.5 | 20 | 0.5 (≈ 1.62 µM) | 4 | 25 |  |
| CN(C/C=C/C#CC(C)(C)C)Cc1cccc2ccccc12 [TERBINAFINE] |  |  |  |  | 0.3 | 1.3 |  |  |  |  |  |  | 0.008 (≈ 0.0275 µM) |  |  | 0.8 | 0.01 (≈ 0.0343 µM) | 0.25 |  |  |
| Cc1cccc(N(C)C(=S)Oc2ccc3ccccc3c2)c1 [TOLNAFTATE] | 1 | >25 |  |  |  |  |  | >30 |  |  |  | 1.3 | 0.3 (≈ 0.976 µM) |  | 0.8 |  |  |  |  |  |
| CCCOC/C(=N\c1ccc(Cl)cc1C(F)(F)F)n1ccnc1 [TRIFLUMIZOLE] | 71 | 1.1 | 0.1 |  | 0.8 | 129 |  | 243 | 9 (≈ 26 µM) |  |  | 214 | 0.07 (≈ 0.202 µM) | 0.8 | 0.3 | > 30 | 9 (≈ 26 µM) | > 25 |  |  |
